Experiments:
[1] = Size distribution, polydispersity and Z-potential of LNPs by dynamic light scattering (Malvern Zetasizer); assay type: physicochemical; settings: LNPs, standard formulation 50:10:38.5:1.5; DLS
Experimental: The LNP solution was then adjusted to a final concentration of mRNA of 100 µg/ml. Size distribution, polydispersity and Z-potential were measured by dynamic light scattering (DLS) using Malvern Zetasizer Advance Lab Blue Label. RNA encapsulation was assessed by Quant-IT® Ribogreen following the manufacturer's instructions.

[2] = Apparent pKa of LNPs comprising the ionizable lipid (Table 6); settings: standard formulation 50:10:38.5:1.5
[3] = RNA encapsulation efficiency of LNPs by Quant-IT Ribogreen; assay type: physicochemical; settings: LNPs with luciferase mRNA; ionizable lipid:non-cationic lipid:sterol:PEG-modified lipid 50:10:38.5:1.5; percentage of RNA entrapped in the LNP
Outline: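 Ribogreen dye assay per manufacturer quantified encapsulated mRNA. Particles were made by adding mRNA in water to the ethanol phase, then 1:1 Tris dilution and overnight dialysis into Tris/15% sucrose; final mRNA set to 100 µg/ml.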

| P.D.I. [1] | Particle size/ Ø (nm) [1] [nm] | Z Potential (± D.E.) [mV] [1] [mV] | Apparent pKa [2] | Encaps. efficiency (%) [3] [%] | SMILES |
| --- | --- | --- | --- | --- | --- |
| 0.2 | 154.5 | -6.33 | 6.37 | 73.32 | CCCCCCCCCCCCCCCCOC(=O)CCSCCC(NC(=O)C(CCCCCC)CCCCCCCC)C(=O)NCCN(CC)CC (stereo not drawn) [VC-LC-0480] |
| 0.16 | 153.4 | 5.13 | 8.25 | 96.86 | CCCCCCCC#CCOC(=O)CCSCC(CC(=O)NC1CCN(C)CC1)C(=O)OCC(CCCCCC)CCCCCCCC (stereo not drawn) [VC-LC-0538] |
| 0.14 | 156.3 | -10.60 | 6.43 | 33.76 | CCCCCCCCC(CCCCCCCC)OC(=O)C(CSCCC(=O)OCCCCCCCC(C)C)CC(=O)NCCCN1CCOCC1 (stereo not drawn) [VC-LC-0542] |
|  | 168.6 | -2.94 | 6.74 | 99.88 | CCCCCCCC#CCOC(=O)CCSCCC(NC(=O)C(CCCCCC)CCCCCCCC)C(=O)NCC1CCN(C)CC1 (stereo not drawn) [VC-LC-0505] |
| 0.23 | 170.1 | 0.25 | 7.60 | 98.62 | CCCCCCCCCCC(CCCCCCCC)C(=O)NC(CCSCCC(=O)OCCCCCCCC(C)C)C(=O)NCC1CCN(C)CC1 (stereo not drawn) [VC-LC-0509] |
| 0.14 | 155.6 | 4.06 | 6.85 | 98.97 | CCCCCCCCCCCCOC(=O)CCSCCC(NC(=O)C(CCCCCCCC)CCCCCCCCCC)C(=O)NCC1CCN(C)CC1 (stereo not drawn) [VC-LC-0511] |
| 0.14 | 155.7 | -10.98 | 6.61 | 31.75 | CCCCCCCCC(CCCCCCCC)OC(=O)C(CSCCC(=O)OCC(CC)CCCC)CC(=O)NCCCN1CCOCC1 (stereo not drawn) [VC-LC-0543] |
| 0.20 | 179.2 | -11.14 | 5.88 | 50.40 | CCCCCCCCC(CCCCCC)COC(=O)C(CCSCCC(=O)OCC(CC)CCCC)C(=O)NCCCN1CCOCC1 (stereo not drawn) [VC-LC-0608] |
| 0.17 | 148.0 | -11.81 | 5.89 | 49.38 | CCCCCCCCC(CCCCCC)COC(=O)C(CCSCCC(=O)OCCCCCCCC(C)C)C(=O)NCCCN1CCOCC1 (stereo not drawn) [VC-LC-0607] |
| 0.12 | 140.3 | -11.02 | 6.53 | 36.86 | CCCCCCCCCCCCOC(=O)CCSCC(CC(=O)NCCCN1CCOCC1)C(=O)OC(CCCCCCCC)CCCCCCCC (stereo not drawn) [VC-LC-0544] |
| 0.13 | 182.2 | -15.06 | 5.69 | 55.61 | CCCCCCCCCCCCCCOC(=O)CCSCCC(NC(=O)C(CCCCCCCC)CCCCCCCCCC)C(=O)NCCCN1CCOCC1 (stereo not drawn) [VC-LC-0577] |

Continued, compound first:

| SMILES | P.D.I. [1] | Particle size/ Ø (nm) [1] [nm] | Z Potential (± D.E.) [mV] [1] [mV] | Apparent pKa [2] | Encaps. efficiency (%) [3] [%] |
| --- | --- | --- | --- | --- | --- |
| CCCCCCCCCCCCCCCCCC(=O)NC(CCSCCC(=O)OCCCCCCCCCCCC)C(=O)NC1CCN(C)CC1 (stereo not drawn) [VC-LC-0434] | 0.2483 | 214.6 | 1.34 | 5.72 | 99.09 |
| CCCCCCCCC(CCCCCCCC)OC(=O)C(CCSCCC(=O)OCCCCCCCC(C)C)C(=O)NCCCn1ccnc1 (stereo not drawn) [VC-LC-0364] | 0.13 | 116.8 | -14.33 | 6.38 | 78.29 |
| CCCCCCCCC(CCCCCC)C(=O)NC(CCSCCC(=O)OCCCCCC)C(=O)NCCCn1ccnc1 (stereo not drawn) [VC-LC-0268] | 0.14 | 173 | -10.85 | 6.18 | 29.52 |
| CCCCCCCCC(CCCCCCCC)OC(=O)C(CSCCC(=O)OCCCCCC)CC(=O)NCCCn1ccnc1 (stereo not drawn) [VC-LC-0306] | 0.09 | 184.2 | -12.78 | 5.70 | 45.62 |
| CCCCCCCCC(CCCCCC)COC(=O)CCSCCC(NC(=O)C(CCCCCC)CCCCCCCC)C(=O)NCCN(CC)CC (stereo not drawn) [VC-LC-0474] | 0.21 | 153.2 | -7.69 | 5.61 | 66.27 |
| CCCCCCCCCCCCCCCCCC(=O)NC(CCSCCC(=O)OCC(CCCCCC)CCCCCCCC)C(=O)NC1CCN(C)CC1 (stereo not drawn) [VC-LC-0433] | 0.13 | 180.8 | 4.87 | 7.75 | 96.77 |
| CCCCCCCC#CCOC(=O)CCSCCC(NC(=O)C(CCCCCC)CCCCCCCC)C(=O)NC1CCN(C)CC1 (stereo not drawn) [VC-LC-0429] | 0.14 | 155.6 | -12.49 | 6.48 | 46.96 |
| CCCCCCCCCCCCOC(=O)CCSCCC(C(=O)NCCCn1ccnc1)C(=O)OC(CCCCCCCC)CCCCCCCC (stereo not drawn) [VC-LC-0366] | 0.16 | 122.6 | -13.24 | 6.33 | 89.18 |
| CCCCCCCC/C=C\CCCCCCCCOC(=O)CCSCCC(NC(=O)C(CCCCCC)CCCCCCCC)C(=O)NCCCN1CCOCC1 (stereo not drawn) [VC-LC-0361] | 0.18 | 169.3 | -12.18 | 5.29 | 41.05 |
| CCCCCCCCCCCCCCOC(=O)CCSCCC(C(=O)NC1CCN(C)CC1)C(=O)OC(CCCCCCCC)CCCCCCCC (stereo not drawn) [VC-LC-0444] | 0.07 | 185.7 | -3.35 | 6.28 | 85.85 |
| CCCCCCCCCCCCCCOC(=O)CCSCC(CC(=O)NCCCn1ccnc1)C(=O)OC(CCCCCCCC)CCCCCCCC (stereo not drawn) [VC-LC-0299] | 0.15 | 193.3 | -13.45 | 6.09 | 57.64 |
| CCCCCCCC/C=C\CCCCCCCC(=O)NC(CCSCC(=O)OCCCCCCCCCCCCC)C(=O)NCCCN1CCOCC1 (stereo not drawn) [VC-LC-0338] | 0.14 | 146.3 | -5.38 | 6.64 | 62.80 |
| CCCCCCCC#CCOC(=O)CCSCCC(NC(=O)C(CCCCCC)CCCCCCCC)C(=O)NCCN1CCOCC1 (stereo not drawn) [VC-LC-0408] | 0.25 | 168.1 | -15.07 | 4.83 | 41.23 |
| CCCCCCCCC(CCCCCC)C(=O)NC(CCSCCC(=O)OCCCCCCCC(C)C)C(=O)NCCN(CC)CC (stereo not drawn) [VC-LC-0475] | 0.13 | 135 | -4.72 | 6.59 | 52.31 |
| CCCCCCCCCCCCCCCCOC(=O)CCSCCC(C(=O)NCCCn1ccnc1)C(=O)OC(CCCCCCCC)CCCCCCCC (stereo not drawn) [VC-LC-0369] | 0.15 | 137.6 | -10.72 | 6.02 | 92.05 |

Source: patent EP4371976B1, “IONIZABLE LIPIDS AND LIPID NANOPARTICLES CONTAINING THEREOF” (Certest Biotec, S.L., priority 2022, dated 2024)
